According to patent publication US7087714B2, “Mu-Opiod receptor splice variant polypeptides” (Memorial Sloan-Kettering Cancer Center, priority 2001, dated 2006):

Key:
exon 11-containing mRNA = assay: RT-PCR of exon 11-containing mRNA in brains of mice given antisense i.c.v.; type: in vivo, mouse; settings: 10 μg i.c.v. daily for 4 days, brain RNA on fifth day
[1] = test system: exon 11-like immunoreactivity (E11-LI); assay: Immunohistochemical labeling (exon 11-like immunoreactivity) in striatum after antisense treatment; type: in vivo, mouse; settings: 10 μg i.c.v. daily for 4 days, perfused on fifth day; p<0.05
MOR-1 gene = assay: In vivo antisense mapping, radiant heat tailflick assay of opioid analgesia; design: species or system mice; settings: 5 μg oligodeoxynucleotide on days 1, 3 and 5, tailflick on day 6

Substance	lowering of the levels of exon 11 expression (RT-PCR) (exon 11-containing mRNA)	downregulation of immunohistochemical labeling in the striatum compared to the control group [1]	effect on spinal (i.t.) M6G analgesia (MOR-1 gene)	effect on spinal (i.t.) morphine analgesia (MOR-1 gene)	effect on supraspinal (i.c.v.) M6G analgesia (MOR-1 gene)	effect on supraspinal (i.c.v.) morphine analgesia (MOR-1 gene)	effect on opioid (morphine or M6G) analgesia, mismatch control (MOR-1 gene)
antisense E11A: antisense oligodeoxynucleotide targeting exon 11: 5′GACAGTCACTGGTGCCTATGCAAT3′ (SEQ ID NO 48) (DNA, backbone not given here)	approximately 40%	over 50%	–	–	–	–	–
exon 1 probe: antisense probe targeting exon 1: 5′CGCCCCAGCCTCTTCCTCT3′ (SEQ ID NO 47) (listed as DNA, chemistry not given here)	–	–	inactive	not spinally	inactive	reduced	–
mismatch E11A: mismatch probe based upon the 11a antisense probe: 5′GACGATCACGTGTGCTCATGACAT3′ (SEQ ID NO 50) (listed as DNA, chemistry not given here) [reference compound]	inactive	without effect	–	–	–	–	inactivity
